Laboratory results published in patent US10654797B2, “Solid forms of an adamantyl compound, compositions and uses thereof” (NORTH & SOUTH BROTHER PHARMACY INVESTMENT COMPANY LIMITED, priority 2016, dated 2020).
One block for each molecule: values may come before it.

What was measured:
[1] = Stability of thin layers under high temperature, high humidity, light and ambient conditions, impurity by HPLC; assay type: physicochemical
Procedure: Thin layers (≤5 mm) of crystalline Form I were placed under high temperature (60±2° C.), high humidity (92.5%±2% humidity), light (visible light 4500 lx±500 lx) and ambient temperature (25±2° C., 65%±5% humidity) for 15 days, and samples were analyzed by HPLC on day 5, 9 and 15.

[2] = Hygroscopicity: weight gain at controlled relative humidity; assay type: physicochemical; conditions: 25° C.±1° C., 24 hours
[3] = Stability of thin layers under high temperature, high humidity, light and ambient conditions, impurity by HPLC; assay type: physicochemical; conditions: day 10, HPLC
[4] = In vivo pharmacokinetics: memantine in plasma after intramuscular administration to rats; conditions: memantine measured in rat plasma, memantine solution 17.5 mg/kg
Procedure: Compound (I) was tested in an experiment to determine its in vivo conversion to the active compound memantine.
Analytical LC/MS/MS systems: Agilent 1200 Series vacuum degasser, dual-injection pump, orifice autosampler, column incubator, charged spray ionization (ESI) source, and Agilent G6430 three-stage quadrupole mass spectrometer. The quantitative analysis is performed in the MRM mode, with the following MRM conversion parameters:
Waters XBridge TMC18, 2.1×30 mm, 3.5 μM column; 20 μL of sample was injected in each run. Conditions: The mobile phase included […]+2 mM ammonium formate+0.1% formic acid (A) and methanol+2 mM ammonium formate+0.1% formic acid (B). The flow rate was 0.35 mL/min. The mobile phase gradient is as follows: […]
Additional instruments and reagents included Agilent 6330 Series LC/MS/MS spectrometer equipped with a G1312A Binary Injection Pump, G1367A autosampler and MS/MS Detector for analysis; LC/MS/MS spectrometer with ESI source. Suitable cationic model treatments and MRM conversion were used for each analyte using standard solution for optimal analysis. Waters XBridge TMC18 was used with specifications of 2.1×30 mm, 3.5 μM. The reaction was carried out with […] ammonium formate+0.1% formic acid (A) and methanol+2 mM ammonium formate+0.1% formic acid (B). […]

[5] = Crystal form stability: suspension in water stirred 24 hours or storage, solids analyzed by X-ray diffraction; assay type: physicochemical; conditions: for Crystalline form after stirring in water: suspension in water, 24 hours, X-ray diffraction
Procedure: Samples of a mixture of crystalline Form I and Form II of Compound (I) were added to water at room temperature or 60° C. to form suspensions, which were stirred for 24 hours, and solids were analyzed by X-ray diffraction.

percentage of impurity ([1]; 60 ± 2° C., day 0, HPLC): 0.04% | percentage of impurity ([1]; 60 ± 2° C., day 5, HPLC): 0.04% | percentage of impurity ([1]; 60 ± 2° C., day 15, HPLC): 0.02% | percentage of impurity ([1]; 92.5% ± 2% humidity, day 0, HPLC): 0.04% | percentage of impurity ([1]; 92.5% ± 2% humidity, day 5, HPLC): 0.06% | percentage of impurity ([1]; 92.5% ± 2% humidity, day 15, HPLC): 0.02% | percentage of impurity ([1]; ambient temperature (25±2° C., 65%±5% humidity), day 0, HPLC): 0.04% | percentage of impurity ([1]; ambient temperature (25±2° C., 65%±5% humidity), day 5, HPLC): 0.04% | percentage of impurity ([1]; ambient temperature (25±2° C., 65%±5% humidity), day 10, HPLC): 0.04% | percentage of impurity ([1]; ambient temperature (25±2° C., 65%±5% humidity), day 15, HPLC): 0.01% | percentage of impurity ([1]; visible light 4500 lx±500 lx, day 0, HPLC): 0.04% | percentage of impurity ([1]; visible light 4500 lx±500 lx, day 5, HPLC): 0.03% | percentage of impurity ([1]; visible light 4500 lx±500 lx, day 15, HPLC): 0.02% | hygroscopicity ([2]; 80% and 92.5% RH): lack of hygroscopicity | weight gain ([2]; saturated KNO3 aqueous solution (92.5%±2% RH)): 0.06% | weight gain ([2]; saturated NH4Cl aqueous solution (80%±2% RH)): 0.03% | percentage of impurity ([3]; 60 ± 2° C.): 0.02% | percentage of impurity ([3]; 92.5% ± 2% humidity): 0.06% | percentage of impurity ([3]; visible light 4500 lx±500 lx): 0.03%
SMILES: CC12CC3CC(C)(C1)CC(NC(=O)OCOC(=O)c1ccccc1)(C3)C2 [crystalline Form I, ((((1r,3R,5S,7r)-3,5-dimethyladamantan-1-yl)carbamoyl)oxy)methyl benzoate]
chemical change under stress conditions ([1]; high temperature, high humidity, light and ambient temperature for 15 days): did not exhibit significant chemical change

T1/2 [4]: 4 h
SMILES: CC12CC3CC(C)(C1)CC(N)(C3)C2 [memantine]

Crystalline form upon long term storage ([5]; long term storage at room temperature): converted to Form I
SMILES: CC12CC3CC(C)(C1)CC(NC(=O)OCOC(=O)c1ccccc1)(C3)C2 [Crystalline Form II, ((((1r,3R,5S,7r)-3,5-dimethyladamantan-1-yl)carbamoyl)oxy)methyl benzoate]

SMILES: CC12CC3CC(C)(C1)CC(NC(=O)OCOC(=O)c1ccccc1)(C3)C2 (mixture of isomers) [((((1r,3R,5S,7r)-3,5-dimethyladamantan-1-yl)carbamoyl)oxy)methyl benzoate]
Crystalline form after stirring in water ([5]; 60° C.): completely converted to crystalline Form I | Crystalline form after stirring in water ([5]; room temperature): remained as a mixture of crystalline Form I and Form II
